Laboratory results: ChEMBL document CHEMBL5365529, “Construction and Evaluation of Novel Dual-function Antifungal Inhibitors and Covalent Organic Framework Carriers Based on the Infection Microenvironment” (J Med Chem, 2023)
Values after ≈ are worked out from the molar mass of the structure shown. Active and inactive are the calls of the source. No cut-off for these calls is given here.

Assays:
Cryptococcus neoformans = assay: Antifungal activity against Cryptococcus neoformans ZKCC 2209 assessed as fungal growth inhibition incubated for 72 hrs by CLSI based susceptibility test; format: functional
Candida albicans [1] = assay: Antifungal activity against Candida albicans SC5314 assessed as fungal growth inhibition incubated for 72 hrs by CLSI based susceptibility test; format: functional
Nakaseomyces glabratus = assay: Antifungal activity against Candida glabrata assessed as fungal growth inhibition incubated for 72 hrs by CLSI based susceptibility test; format: functional
Aspergillus fumigatus = assay: Antifungal activity against Aspergillus fumigatus KM8001 assessed as fungal growth inhibition incubated for 72 hrs by CLSI based susceptibility test; format: functional
Candida tropicalis = assay: Antifungal activity against Candida tropicalis ATCC 1369 assessed as fungal growth inhibition incubated for 72 hrs by CLSI based susceptibility test; format: functional
Candida albicans [2] = assay: Induction of immunity in BALB/c mouse infected with Candida albicans 901 assessed as decrease in PD-L1 level at 0.5 ug/g administered 6 times measured after 4 days in presence of Ketoconazole by IHC analysis; format: functional, organism-based; settings: dose 0.5 µg/g, time 4.0 day
Candida albicans [3] = assay: Antifungal activity against Candida albicans 901 infected in BALB/c mouse assessed as inhibition of fungal proliferation at 0.5 ug/g administered 6 times measured after 4 days in presence of Ketoconazole by Masson staining based analysis; format: functional, organism-based; settings: dose 0.5 µg/g, time 4.0 day
Candida albicans [4] = assay: Antifungal activity against Candida albicans 901 infected in BALB/c mouse assessed as decrease in collagen fiber content at 0.5 ug/g administered 6 times measured after 4 days in presence of Ketoconazole by Masson staining based analysis; format: functional, organism-based; settings: dose 0.5 µg/g, time 4.0 day
Candida albicans [5] = assay: Antifungal activity against Candida albicans 901 infected in BALB/c mouse assessed as decrease in collagen fiber content at 0.5 ug/g administered 6 times measured after 4 days in presence of Ketoconazole by GMS staining based analysis; format: functional, organism-based; settings: dose 0.5 µg/g, time 4.0 day
[6] = molecular target: Programmed cell death 1 ligand 1 (Homo sapiens, UniProt Q9NZQ7); assay: Inhibition of human PD-L1 incubated for 15 mins by ELISA method
[7] = Toxicity in BALB/c mouse infected with Candida albicans 901 assessed as pathological change in spleen at 0.5 ug/g administered 6 times measured after 4 days in presence of Ketoconazole by H and E staining based analysis; format: tissue-based; settings: in vivo, 96 h, dose 0.5 µg/g, time 4 day
[8] = Toxicity in BALB/c mouse infected with Candida albicans 901 assessed as pathological change in liver at 0.5 ug/g administered 6 times measured after 4 days in presence of Ketoconazole by H and E staining based analysis; format: tissue-based; settings: in vivo, 96 h, dose 0.5 µg/g, time 4 day
[9] = Toxicity in BALB/c mouse infected with Candida albicans 901 assessed as pathological change in lung at 0.5 ug/g administered 6 times measured after 4 days in presence of Ketoconazole by H and E staining based analysis; format: tissue-based; settings: in vivo, 96 h, dose 0.5 µg/g, time 4 day
Candida albicans [10] = assay: Antifungal activity against Candida albicans 901 infected in BALB/c mouse assessed as repair of tissue damage at 0.5 ug/g administered 6 times measured after 4 days in presence of Ketoconazole by Masson staining based analysis; format: functional, organism-based; settings: dose 0.5 µg/g, time 4.0 day
Candida albicans [11] = assay: Antifungal activity against Candida albicans 901 infected in BALB/c mouse assessed as repair of tissue damage at 0.5 ug/g administered 6 times measured after 4 days in presence of Ketoconazole by GMS staining based analysis; format: functional, organism-based; settings: dose 0.5 µg/g, time 4.0 day
Candida albicans [12] = assay: Induction of immunity in BALB/c mouse infected with Candida albicans 901 assessed as decrease in PD-L1 level at 0.5 ug/g administered 6 times measured after 4 days in presence of Ketoconazole by Western blot analysis; format: functional, organism-based; settings: dose 0.5 µg/g, time 4.0 day
Candida albicans [13] = assay: Antifungal activity against Candida albicans 901 infected in BALB/c mouse assessed as inhibition of fungal proliferation at 0.5 ug/g administered 6 times measured after 4 days in presence of Ketoconazole by GMS staining based analysis; format: functional, organism-based; settings: dose 0.5 µg/g, time 4.0 day
[14] = Toxicity in BALB/c mouse infected with Candida albicans 901 assessed as pathological change in heart at 0.5 ug/g administered 6 times measured after 4 days in presence of Ketoconazole by H and E staining based analysis; format: tissue-based; settings: in vivo, 96 h, dose 0.5 µg/g, time 4 day
[15] = Toxicity in BALB/c mouse infected with Candida albicans 901 assessed as pathological change in kidney at 0.5 ug/g administered 6 times measured after 4 days in presence of Ketoconazole by H and E staining based analysis; format: tissue-based; settings: in vivo, 96 h, dose 0.5 µg/g, time 4 day

Chain of Programmed cell death 1 ligand 1 (Q9NZQ7 whole entry): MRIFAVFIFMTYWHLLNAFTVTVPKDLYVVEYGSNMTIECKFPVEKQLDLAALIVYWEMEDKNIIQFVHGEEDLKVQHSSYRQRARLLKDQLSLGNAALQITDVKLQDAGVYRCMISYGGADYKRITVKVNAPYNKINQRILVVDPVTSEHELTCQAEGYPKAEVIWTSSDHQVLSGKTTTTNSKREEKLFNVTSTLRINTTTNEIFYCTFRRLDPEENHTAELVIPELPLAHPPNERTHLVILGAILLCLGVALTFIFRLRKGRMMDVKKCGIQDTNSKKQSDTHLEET

| Compound | MIC50 (Cryptococcus neoformans) | MIC50 (Candida albicans [1]) | MIC50 (Nakaseomyces glabratus) | MIC50 (Aspergillus fumigatus) | MIC50 (Candida tropicalis) | also measured |
| --- | --- | --- | --- | --- | --- | --- |
| CCOC(=O)[C@@H](Cn1cncn1)NCc1cccc(OCc2cccc(-c3ccccc3)c2C)c1 | 2 µg/mL (≈ 4.25 µM) | 1 µg/mL (≈ 2.13 µM) | 0.25 µg/mL (≈ 0.531 µM) | 4 µg/mL (≈ 8.5 µM) | 1 µg/mL (≈ 2.13 µM) |  |
| O=C(O)[C@@H](CO)NCc1cc(Cl)c(OCc2cccc(-c3ccccc3)c2Br)cc1OCc1cccnc1 |  |  |  |  |  | Activity (Candida albicans [2]): Active; inhibition (Candida albicans [3]): Active; Activity (Candida albicans [4]): Active; Activity (Candida albicans [5]): Active; IC50 [6]: 0.022 µM; Activity [7]: Non-Toxic; Activity [8]: Non-Toxic; Activity [9]: Non-Toxic; Activity (Candida albicans [10]): Active; Activity (Candida albicans [11]): Active; Activity (Candida albicans [12]): Active; inhibition (Candida albicans [13]): Active; Activity [14]: Non-Toxic; Activity [15]: Non-Toxic |
| COC(=O)[C@@H](Cn1cncn1)NC(=O)C1CCCN(C(=O)c2cccc(-c3ccccc3)c2)C1 (some centres undefined) | 1 µg/mL (≈ 2.17 µM) | 0.5 µg/mL (≈ 1.08 µM) | 0.5 µg/mL (≈ 1.08 µM) | 8 µg/mL (≈ 17.3 µM) | 1 µg/mL (≈ 2.17 µM) |  |
| COC(=O)[C@@H](Cn1ccnc1)NCc1cccc(OCc2cccc(-c3ccccc3)c2C)c1 | 1 µg/mL (≈ 2.2 µM) | 0.5 µg/mL (≈ 1.1 µM) | 1 µg/mL (≈ 2.2 µM) | > 8 µg/mL | 2 µg/mL (≈ 4.39 µM) |  |
| Cc1c(COc2cccc(CN[C@H](Cn3ccnc3)C(=O)OC(C)C)c2)cccc1-c1ccccc1 | 2 µg/mL (≈ 4.14 µM) | 0.25 µg/mL (≈ 0.517 µM) | 0.5 µg/mL (≈ 1.03 µM) | 4 µg/mL (≈ 8.27 µM) | 0.5 µg/mL (≈ 1.03 µM) |  |
| CCOC(=O)[C@@H](Cn1ccnc1)NCc1cccc(OCc2cccc(-c3ccccc3)c2C)c1 | 1 µg/mL (≈ 2.13 µM) | 0.5 µg/mL (≈ 1.06 µM) | 1 µg/mL (≈ 2.13 µM) | 4 µg/mL (≈ 8.52 µM) | 0.5 µg/mL (≈ 1.06 µM) |  |
| CCOC(=O)[C@@H](Cn1ccnc1)NC(=O)C1CCCN(C(=O)c2cccc(-c3ccccc3)c2)C1 (some centres undefined) | 1 µg/mL (≈ 2.11 µM) | 0.5 µg/mL (≈ 1.05 µM) | 1 µg/mL (≈ 2.11 µM) | 4 µg/mL (≈ 8.43 µM) | 0.5 µg/mL (≈ 1.05 µM) |  |
| COC(=O)[C@@H](Cn1ccnc1)NC(=O)C1CCCN(C(=O)c2cccc(-c3ccccc3)c2)C1 (some centres undefined) | 4 µg/mL (≈ 8.69 µM) | 1 µg/mL (≈ 2.17 µM) | 0.5 µg/mL (≈ 1.09 µM) | > 8 µg/mL | 2 µg/mL (≈ 4.34 µM) |  |
| CCOC(=O)[C@@H](Cn1ccnc1)NC(=O)C1CCCN(Cc2cccc(-c3ccccc3)c2C)C1 (some centres undefined) | 1 µg/mL (≈ 2.11 µM) | 0.25 µg/mL (≈ 0.527 µM) | 0.5 µg/mL (≈ 1.05 µM) | > 8 µg/mL | 0.25 µg/mL (≈ 0.527 µM) |  |
